Results: patent US7279548B2, “Identification and isolation of novel polypeptides having WW domains and methods of using same” (Cytogen Corporation, priority 1996, dated 2007)

Assays:
[1] = tested on: WW domains of WWP4 expressed as GST fusion proteins; test: ELISA based cross affinity mapping, WW domains of WWP4; format: binding, human; conditions: biotinylated peptide-streptavidin/alkaline phosphatase complex; GST fusion proteins; ELISA
Description: (§1) The 16 day mouse embryo cDNA expression library was diluted 1:1000 in SM solution (100 mM NaCl, 8 mM MgSOv4, 50 mM Tris HCl pH 7.5, 0.01% gelatin). To a sterile test tube, 2 μl of diluted mouse embryo library, 100 μl of 10 mM CaCl2, 100 μl of 10 mM MgCl2 and 100 μl of BL21(DE3)pLysE bacterial cells (grown overnight) were added and incubated for 30 minutes at 37° C. The contents of the tube were mixed with 3 ml of 0.6% top agarose, containing […] chloramphenicol, and poured onto a 2xYT plate (90 mm diameter). For a large primary screen, 10–20 plates were prepared with 3×10^4 pfu per plate. After 6 hours incubation at 37° C., a nitrocellulose filter soaked in 10 mM isopropyl-β-D-thiogalactopyranoside (IPTG) was overlaid on each plate and incubated 3–6 hours at 37° C. Before the filters were removed from the plates, they were marked asymmetrically with India ink in a 18 gauge syringe needle. The plates were stored at 4° C. until ready for the secondary screen. The filters were washed with PBS (137 mM NaCl, 2.7 mM KCl, 4.3 mM Na2HPO4, 1.4 mM KH2PO4)-0.05% Triton X-100 three times at room temperature, 15 minutes each wash, and then placed in a plastic bag containing non-specific blocking solution (PBS-2% BSA) for one hour. In the meantime, 1 ml of 1 mM biotinylated peptide in PBS-0.1% Tween 20 was added to 20 ml of 1 mg/ml streptavidin-alkaline phosphatase (SA-AP) in PBS-0.1% Tween 20 and incubated at 4° C. for 30 minutes. […] Excess biotin-binding sites would then be blocked by addition of 500 pmol biotin. […] Ten μl of 0.1 mM biotin would then be added, and the solution incubated for an additional 15 min.
(§2) To determine the ligand preferences of the novel WW omain-containing clones described in Sections 6.1 and 6.1.1, as well as addressing the issue of whether peptides containing PPPPY (SEQ ID NO:3)-like motifs derived from a variety of proteins could also serve as recognition units and bind to these clones, a cross affinity mapping experiment was performed (FIGS. 15A–D). The peptides shown in FIGS. 15A–D were synthesized, biotinylated, complexed with streptavidin-alkaline phosphatase, and tested in an ELISA based assay for their ability to bind to the twelve individual novel WW domains of WWP1, WWP2, WWP3 and WWP4 which were expressed as GST fusion proteins. The ELISA based cross-affinity experiments were performed essentially as described by Sparks et al. (1996, Proc. Natl. Acad. Sci. 93:1540–1544) with the following modifications. Briefly, microtiter wells were coated with 1–5 μg of fusion protein in 100 mM NaHCO3, blocked with SuperBlock TBS (Pierce) and washed four times with PBS, 0.05% Tween 20. Specific peptide-streptavidin/alkaline phosphatase complexes were added as above and unbound complexes washed five times with PBS, 0.05% Tween 20. Following addition of PNP substrate (p-nitrophenyl phosphate, Kirkegard & Perry Labs), peptide binding was quantitated after 30 min. at O.D. 405 nm. Relative binding measurements from three independent determinations were assigned to a scale as follows: O.D. units 0–0.5=(−), 0.5–1.0=(+), 1.0–2.0=(++), 2.0–3.0=(+++), >3.0=(++++). Peptide binding to human Fyn and Lyn SH3 and SH2 domains was assessed by a filter binding assay (see Section 6.1 and Sparks et al., 1996, Proc. Natl. Acad. Sci 93:1540–1544). Peptide sequences used in cross-affinity experiments correspond to segments of the following genes: RasGap (Database accession # P20936), AP-2 (P05549), p53BP-2 (U09582), IL-6Rα (P22272), voltage-gated chloride channel CLCN5 (X91906), IL-2Rγ (D111086), RSV (D10652), HTLV-1 (D13784), β-dystroglycan (L19711), Formin (X53599), amiloride-sensitive epithelial Na^+ channel ENaCα (P37089), ENaCβ (X87159) and ENaCγ (X87160), muscarinic acetylcholine receptor M4 AChR (P08173), and c-Abl (P00522). Src and Crk SH3 binding peptide sequences were derived from a phage display random peptide library screen (Section 6.1 and Sparks et al., 1996, Proc. Natl. Acad. Sci. 93:1540–1544).

[2] = tested on: WW domains of WWP2 expressed as GST fusion proteins; test: ELISA based cross affinity mapping, WW domains of WWP2; format: binding, human; conditions: biotinylated peptide-streptavidin/alkaline phosphatase complex; GST fusion proteins; ELISA
Description: as §1, §2

[3] = tested on: WW domains of WWP1 expressed as GST fusion proteins; test: ELISA based cross affinity mapping, WW domains of WWP1; format: binding, human; conditions: biotinylated peptide-streptavidin/alkaline phosphatase complex; GST fusion proteins; ELISA
Description: as §1, §2

[4] = target: T1, WWP3 WW domain expressed as GST fusion protein (Homo sapiens, UniProt Q96QZ7); test: ELISA based cross affinity mapping, WWP3 WW domain; format: binding; conditions: biotinylated peptide-streptavidin/alkaline phosphatase complex
T1 construct: made in house
T1 sequence (Q96QZ7 300-337 limits assumed): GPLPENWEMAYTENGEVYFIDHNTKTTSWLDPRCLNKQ
Description: The 16 day mouse embryo cDNA expression library was diluted 1:1000 in SM solution (100 mM NaCl, 8 mM MgSOv4, 50 mM Tris HCl pH 7.5, 0.01% gelatin). To a sterile test tube, 2 μl of diluted mouse embryo library, 100 μl of 10 mM CaCl2, 100 μl of 10 mM MgCl2 and 100 μl of BL21(DE3)pLysE bacterial cells (grown overnight) were added and incubated for 30 minutes at 37° C. The contents of the tube were mixed with 3 ml of 0.6% top agarose, containing […] chloramphenicol, and poured onto a 2xYT plate (90 mm diameter). For a large primary screen, 10–20 plates were prepared with 3×10^4 pfu per plate. After 6 hours incubation at 37° C., a nitrocellulose filter soaked in 10 mM isopropyl-β-D-thiogalactopyranoside (IPTG) was overlaid on each plate and incubated 3–6 hours at 37° C. Before the filters were removed from the plates, they were marked asymmetrically with India ink in a 18 gauge syringe needle. The plates were stored at 4° C. until ready for the secondary screen. The filters were washed with PBS (137 mM NaCl, 2.7 mM KCl, 4.3 mM Na2HPO4, 1.4 mM KH2PO4)-0.05% Triton X-100 three times at room temperature, 15 minutes each wash, and then placed in a plastic bag containing non-specific blocking solution (PBS-2% BSA) for one hour. In the meantime, 1 ml of 1 mM biotinylated peptide in PBS-0.1% Tween 20 was added to 20 ml of 1 mg/ml streptavidin-alkaline phosphatase (SA-AP) in PBS-0.1% Tween 20 and incubated at 4° C. for 30 minutes. As an alternative method of forming multivalent complexes, 50 pmol biotinylated peptide could have been incubated with 2 μg SA-AP (for a biotin:biotin-binding site ratio of 1:1). Excess biotin-binding sites would then be blocked by addition of 500 pmol biotin. As a further alternative, 31.2 μl of 1 mg/ml SA-AP could have been incubated with 15 μl of 0.1 mM biotinylated peptide for 30 min at 4° C. Ten μl of 0.1 mM biotin would then be added, and the solution incubated for an additional 15 min.
as §2, with “Peptide sequences used in cross-affinity experiments correspond to segments of the following genes: RasGap (Database accession # P20936), AP-2 (P05549), p53BP-2 (U09582), IL-6Rα (P22272), voltage-gated chloride channel CLCN5 (X91906), IL-2Rγ (D111086), RSV (D10652), HTLV-1 (D13784), β-dystroglycan (L19711), Formin (X53599), amiloride-sensitive epithelial Na^+ channel ENaCα (P37089), ENaCβ (X87159) and ENaCγ (X87160), muscarinic acetylcholine receptor M4 AChR (P08173), and c-Abl (P00522). Src and Crk SH3 binding peptide sequences were derived from a phage display random peptide library screen (Section 6.1 and Sparks et al., 1996, Proc. Natl. Acad. Sci. 93:1540–1544).” left out

[5] = tested on: twelve individual novel WW domains of WWP1, WWP2, WWP3 and WWP4; test: ELISA based cross affinity mapping, whole panel of novel WW domains; format: binding, human; conditions: biotinylated peptide-streptavidin/alkaline phosphatase complex, GST fusion proteins
Description: as §1, §2

| Substance | binding to WW domains of WWP4 [1] | binding to WW domains of WWP2 [2] | binding to WW domains of WWP1 [3] | binding to WWP3 WW domain [4] | binding to the novel WW domains (WWP1, WWP2, WWP3, WWP4 panel) [5] |
| --- | --- | --- | --- | --- | --- |
| ENaCβ-P616L: mutant ENaCβ peptide, Liddle syndrome missense substitution, PPPNY to PPLNY (PGTPPLNYDSLRL) | do not bind | do not bind | do not bind | – | – |
| biotin - PGTPPPNYDSLRL [ENaCβ] | positive interaction | positive interaction | positive interaction | positive interaction | – |
| β dystroglycan-2: second peptide from dystrophin interacting molecule β-dystroglycan (YRSPPPYVPP) | – | – | – | – | bound to WW domains from one or more of the four novel clones |
| AP-2: peptide with PPPPY-like motif from AP-2 transcription factor (P05549) (PYFPPPYQPI) | – | – | – | – | bound to WW domains from one or more of the four novel clones |
| ENaCβ-Y618H: mutant ENaCβ peptide, Liddle syndrome missense substitution, PPPNY to PPPNH (PGTPPPNHDSLRL) | do not bind | do not bind | do not bind | – | – |
| bWW062: alanine substitution variant of the tyrosine residue of the PPPPY-like domain of WWP2 (NRLDLPPAKSYEQ) | abolished binding activity | abolished binding activity | abolished binding activity | – | – |
| IL-2R: peptide from interleukin receptor IL-2R (YWAPPCYTLK) | – | – | – | – | bound to WW domains from one or more of the four novel clones |
| biotin - PGTPPPKYNTLRL [ENaCγ] | positive interaction | positive interaction | positive interaction | positive interaction | – |
| IL-6R: peptide from interleukin receptor IL-6R (TTSPPPPPYS) | – | – | – | – | bound to WW domains from one or more of the four novel clones |
| β-dystroglycan-1: peptide from dystrophin interacting molecule β-dystroglycan (L19711) (PLPPPEYPNQ) | – | – | – | – | bound to WW domains from one or more of the four novel clones |
| bWW060: alanine substitution variant of the tyrosine residue of the PPPPY-like domain of WWP4 (NRLDLPPAETFED) | abolished binding activity | abolished binding activity | abolished binding activity | – | – |
| WBP-2A-Pro3: WBP-2A peptide with substitution of the second proline (SGSGYVQPPAPPYPGPM) | is not | is not | – | – | – |
| p53BP-2: peptide with PPPPY-like motif from p53 binding protein-2 (U09582) (YPPYPPPPYPSG) | – | – | – | – | bound to WW domains from one or more of the four novel clones |
| WBP-2A-Pro4: WBP-2A peptide with substitution of the third proline residue (SGSGYVQPPPAPYPGPM) | absolutely essential for binding | absolutely essential for binding | absolutely essential for binding | absolutely essential for binding | – |
| RasGap: peptide with PPPPY-like motif from a segment of RasGap (P20936) (PLPPPPYLPP) | – | – | – | – | bound to WW domains from one or more of the four novel clones |
